From US20160199463A1, “HDAC2 DEFENDS VASCULAR ENDOTHELIUM FROM INJURY” (The Johns Hopkins University, priority 2014, published 2016)

Tests used:
[1] = tested on: Arg2; test: Arg2 protein expression in HAECs (Western blot); type: cell-based, human; conditions: MS275 2 μmol/L; CI994 1 μmol/L; MC1568 0.5 μmol/L; PC34051 100 nmol/L; MGCD0103 1 μmol/L
Protocol: After 48 hrs of HAEC cells transfection, cells were lysed in ice cold RIPA lysis buffer consisting of 20 mM Tris-HCl at pH 7.5, 150 mM NaCl, 1 mM EDTA, 1 mM EGTA, 1% NP40, 1% sodium deoxycholate, 1 mM Na3VO4, 2.5 mM sodium pyrophosphate, 1 mM 3-glycerophosphate, 1 μg/mL leupeptin, and a 1:1000 diluted protease inhibitor cocktail (Sigma). For immunoprecipitation studies, whole cell lysate lysates were centrifuged at 14,000×g and supernatants were precleared by incubation with Protein A/G-agarose beads for 2 h at 4° C. with rocking. Agarose beads were then pelleted by centrifugation at 1,000×g. FLAG-Arg2 in precleared lysates were immunoprecipitated by incubation overnight at 4° C. with rocking following addition of anti-FLAG antibody (10 μl). Immune complexes were eluted in 2×SDS sample buffer by boiling for 5 minutes before loading into SDS-PAGE. Western blotting analysis was performed by transferring the SDS gel onto a PVDF membrane and visualized using secondary antibodies conjugated to alkaline phosphatases.

[2] = tested on: HDAC1A; conditions: cited from earlier work

Cn1c(/C=C/C(=O)NO)ccc1/C=C/C(=O)c1cccc(F)c1 [MC1658]
endothelial Arg2 expression, class-specific HDAC inhibitors [1]: no substantial effects
IC50 [2]: 100 nM
